Test results as given in article PMC10216263, “Favorable Preclinical Pharmacological Profile of a Novel Antimalarial Pyrrolizidinylmethyl Derivative of 4-amino-7-chloroquinoline with Potent In Vitro and In Vivo Activities” (Biomolecules, 2023).
Where two headings read alike, the source gives them in different places.

Key:
[1] = system: Salmonella typhimurium TA98; test: Bacterial Reverse Mutation Assay; details: Positive Control 1.25 g/plate, TA 98, with metabolic activation
Protocol: (§8) using the preincubation method (30 min, 37°C) with and without phenobarbital-5,6-benzoflavone induced
(§9) MG3 was dissolved in distilled water (H2O) at
(§10) the maximum concentration of 40 mg/mL and tested in a preliminary range-finding test in all strains of
(§11) metabolic activation to determine the toxicity of the compound.

[2] = system: Salmonella typhimurium TA100; test: Bacterial Reverse Mutation Assay; details: Positive Control 1.25 µg/plate, TA 100, with metabolic activation
Protocol: as §8, §9, §10, §11

[3] = system: Escherichia coli WP2 uvrA; test: Bacterial Reverse Mutation Assay; details: Positive Control 5 µg/plate, with metabolic activation
Protocol: as §8, §9, §10, §11

[4] = cited from earlier work
[5] = system: P. vivax field isolates; test: Chemosensitivity assay on field isolates; type: cell-based; details: Plasmodium vivax, read-out: P. vivax IC50 nM, Field Isolates
Protocol: (§1) The 10 P. vivax and 10 P. falciparum isolates used in this study were obtained from Mae Sod District, Tak Province, Thailand. […] Isolates were collected in 5 mL lithium-heparinized tubes and sent to the laboratory within 5–6 h.

[6] = system: P. falciparum field isolates; test: Chemosensitivity assay on field isolates; type: cell-based; details: Plasmodium falciparum
Protocol: as §1

[7] = system: P. falciparum V1-S (CQ-R); test: In vitro antimalarial activity, [3H]-hypoxanthine incorporation (LSHTM); type: cell-based; details: Plasmodium falciparum, read-out: P. falciparum IC50 nM, V1-S (CQ-R)
[8] = system: P. falciparum K1 (CQ-R); test: as above; type: cell-based; details: Plasmodium falciparum
[9] = system: P. falciparum TM90C2A (CQ-R); test: as above; type: cell-based; details: Plasmodium falciparum, read-out: P. falciparum IC50 nM, TM90C2A (CQ-R)
[10] = system: P. berghei ANKA; test: Oral curative activity against P. berghei ANKA; type: in vivo, P. berghei in mice; details: for Average survival (days) after infection: individual values in brackets
[11] = system: P. falciparum FCR3 (CQ-R); test: In vitro antimalarial activity, [3H]-hypoxanthine incorporation (LSHTM); type: cell-based; details: Plasmodium falciparum
[12] = system: P. falciparum K1 (CQ-R); test: In vitro combination study (isobologram, ∑FIC); type: cell-based
[13] = system: P. falciparum IPC5202 (ARM-R); test: microbe, parasite or virus in culture; type: cell-based; details: Plasmodium falciparum, 72 h
Protocol: The strains D10 and 3D7 (CQ-Sensitive), and V1-S (CQ, pyrimethamine and cycloguanil resistant), K1 (CQ and PYR resistant), W2 and FCR3 (CQ-Resistant), TM90C2A (CQ, MQ, PYR and ATQ resistant) and IPC 5202 (MR4-1240, artemisinin-resistant, K13 mutation, and R539T) of Pf were cultured in vitro as described by Trager and Jensen with minor modifications. Briefly, parasites were maintained at 5% hematocrit (human type A-positive red blood cells) in RPMI 1640 (EuroClone, S.p.A. Milan, Italy) medium with the addition of 10% heat inactivate human serum or 1% AlbuMax (In vitrogen, Milan, Italy), 20 mM Hepes and 2 mM glutamine (Euroclone), at 37 °C in a standard gas mixture consisting of 1–3% O2, 5% CO2, and 92–94% N2.
Compounds were dissolved in either water or DMSO and then diluted with medium to achieve the required concentrations (final non-toxic DMSO concentration <1%). Asynchronous cultures of Pf with parasitaemia of 1–1.5% and 1% final hematocrit were aliquoted into 96-well flat-bottom microplates (Corning, Glendale, AZ, USA) with serial dilutions of test compounds and incubated for 72 h at 37 °C. Parasite growth was determined spectrophotometrically (OD650) by measuring the activity of the parasite lactate dehydrogenase (pLDH) according to a modified version of the method of Makler in control and drug-treated cultures.

[14] = system: P. falciparum W2 (CQ-R); set-up: method as in PMID 18538567; details: 72 h incubation, pLDH method, mean of 3 experiments; cited from earlier work
[15] = system: Pf-3D7 gametocytes >95% Stage V; test: Gametocyte luciferase assay (3D7elo1-pfs16-CBG99); type: cell-based, P. falciparum; details: Plasmodium falciparum, 3D7, read-out: Pf-3D7 gametocytes IC50 (nM), >95% Stage V
Protocol: (§2) In vitro activity of MG3 against P falciparum sexual gametocyte stages […]
(§3) luminescent transgenic 3D7 strain (3D7elo1-pfs16-CBG99) at two different stages (I-III and V) using the […]
(§4) Briefly, 100 µL of culture medium were removed from each well to increase hematocrit; 70 µL of resuspended culture were transferred to a black 96-well plate; 70 µL of D-luciferin (1 mM in citrate buffer 0.1 M, pH 5.5) were added. Luminescence measurements were performed after 10 min with 500 ms integration time using a Synergy4-BioTek reader.
(§5) (1 picture or pasted object on this page, not shown here)

[16] = system: Pf-3D7 gametocytes >95% Stage I-III; test: Gametocyte luciferase assay (3D7elo1-pfs16-CBG99); type: cell-based, P. falciparum; details: Plasmodium falciparum
Protocol: as §2, §3, §4, §5

[17] = system: P. falciparum 3D7 (CQ-S); test: In vitro antimalarial activity, [3H]-hypoxanthine incorporation (LSHTM); type: cell-based; details: Plasmodium falciparum, 3D7, read-out: P. falciparum IC50 nM, 3D7 (CQ-S)
[18] = system: P. falciparum D10 (CQ-S); set-up: method as in PMID 18538567; details: 72 h incubation, pLDH method, mean of 3 experiments; cited from earlier work
[19] = system: P. berghei ANKA; set-up: method as in PMID 19284751; details: oral 4-day test; cited from earlier work
[20] = system: P. yoelii NS; set-up: method as in PMID 19284751; details: oral 4-day test; cited from earlier work
[21] = system: mouse hepatocytes; test: Metabolic profiling in hepatocytes; type: in vitro ADME; details: 1 h, 10 µM
Protocol: (§6) For metabolite profiling, MG3.2HCl (10 µM) was incubated with mouse, rat, dog, monkey, and human hepatocytes (300,000 cells/mL for the mouse and 1 × 10^6 cells/mL for the other species) in Leibovitz L-15 medium, at 37 °C. Incubations were performed in a 12-well plate under shaking. Aliquots of the incubation samples, together with a control in medium alone, were taken at t = 0 and 60 min; the metabolism was stopped by the addition of an equal volume of chilled ACN and the samples were centrifuged at 1100 rpm for 20 min. The supernatant was stored at −20 °C until analysis. The analyses were performed using an HPLC system (Agilent) online with a photodiode array (PDA) detector (Agilent) coupled to a Mass Spectrometer Q-TOF 2 (Waters), ESI positive, following the method reported in Table 1.
(§7) The software utilized for searching the accurate masses of possible metabolites was Metabolynx, version 4.1 (Waters Corporation, Milford, MA, USA), with a mass window of 40 mDa. Samples were then re-run in MS/MS mode by selecting the masses of possible metabolites found. The collision energy used to obtain MS/MS data was 25 eV. The proposed identity of metabolites was based on their accurate mass (using LockSpray correction), with an accuracy of +/−5 mDa. MS/MS analyses were performed to verify that peaks were drug-related and to obtain structural information from the fragment ions formed. The structures of some metabolites are proposed. The approximate relative amounts of parent and metabolites were determined from the absolute areas taken from a selected ion chromatogram at the metabolite masses with a mass window of 0.04 Da.

[22] = system: human hepatocytes; test: Metabolic profiling in hepatocytes; type: in vitro ADME; details: human, 60 min, 10 µM
Protocol: as §6, §7

[23] = system: monkey hepatocytes; test: Metabolic profiling in hepatocytes; type: in vitro ADME; details: 1 h, 10 µM
Protocol: as §6, §7

[24] = system: dog hepatocytes; test: Metabolic profiling in hepatocytes; type: in vitro ADME; details: 1 h, 10 µM
Protocol: as §6, §7

[25] = system: rat hepatocytes; test: Metabolic profiling in hepatocytes; type: in vitro ADME; details: rat, 60 min, 10 µM
Protocol: as §6, §7

[26] = system: P. falciparum K1 (CQ-R); set-up: method as in PMID 17466277; details: literature value; read-out: IC50 against K1 strain; cited from earlier work
[27] = 72 h, [3H]-hypoxanthine incorporation, mean of 3 experiments
[28] = K1, read-out: P. falciparum IC50 nM, K1 (CQ-R)
[29] = FCR3, read-out: P. falciparum IC50 nM, FCR3 (CQ-R)

Nc1ccc2cc3ccccc3cc2c1 [2-aminoanthracene, reference compound]
fold increase value (ratio treated/solvent revertant numbers) ([1]; I° Exp.): 37.2 | fold increase value (ratio treated/solvent revertant numbers) ([1]; Range finding): 26.5 | fold increase value (ratio treated/solvent revertant numbers) ([2]; I° Exp.): 5.1 | fold increase value (ratio treated/solvent revertant numbers) ([2]; Range finding): 7.7 | fold increase value (ratio treated/solvent revertant numbers) ([3]; I° Exp.): 13.0 | fold increase value (ratio treated/solvent revertant numbers) ([3]; Range finding): 8.2

CCN(CC)CCCNc1ccnc2cc(Cl)ccc12 [AQ13]
absolute bioavailability ([4]; in vivo): 70%

C[C@H]1[C@H](OC(=O)CCC(=O)O)O[C@@H]2O[C@@]3(C)CC[C@H]4[C@H](C)CC[C@@H]1[C@@]24OO3 [ASN, artesunate]
IC50 ([5]; mean of 10 field isolates, Thai Burmese Border): 2.3 nM | IC50 ([6]; mean of 10 field isolates, Thai Burmese Border, read-out: P. falciparum IC50 nM, Field Isolates): 4.2 nM | IC50 [7, 27]: 2.7 nM | IC50 ([8]; K1, 72 h, [3H]-hypoxanthine incorporation, mean of 3 experiments, read-out: P. falciparum IC50 nM, K1 (CQ-R)): 2.6 nM | IC50 [9, 27]: 2.6 nM | % Suppression of parasitaemia (on day 4 post infection) ([10]; oral dose 3 x 30 mg/kg): 99.09% | Average survival (days) after infection ([10]; oral dose 3 x 30 mg/kg): 8 (7, 8, 8, 9, 9) days | IC50 ([11]; FCR3, 72 h, [3H]-hypoxanthine incorporation, mean of 3 experiments, read-out: P. falciparum IC50 nM, FCR3 (CQ-R)): 2.6 nM

CCN(CC)Cc1cc(Nc2ccnc3cc(Cl)ccc23)ccc1O [Amodiaquine, amodiaquine]
% Suppression of parasitaemia (on day 4 post infection) ([10]; oral dose 3 x 10 mg/kg): 100% | Average survival (days) after infection ([10]; oral dose 3 x 10 mg/kg): 11 (9, 11, 11, 12, 13) days

CCN(CC)CCCC(C)Nc1ccnc2cc(Cl)ccc12 (stereo not drawn) [CQ, chloroquine]
IC50 [5]: 86.6 nM | IC50 ([6]; read-out: P. falciparum IC50 nM, Field Isolates, mean of 10 field isolates, Thai Burmese Border): 252 nM | IC50 [7]: 774 nM | Mean ∑FIC50 (95% CI) ([12]; in combination with ASN, K1, IC50 level): 1.67 (1.44 – 1.90) | Mean ∑FIC50 (95% CI) ([12]; in combination with DHA, K1, IC50 level): 1.27 (1.16 – 1.38) | Mean ∑FIC50 (95% CI) ([12]; in combination with RKA-182, K1, IC50 level): 1.19 (0.77 – 1.60) | IC50 [8, 28]: 708 nM | IC50 ([13]; read-out: P. falciparum IC50 nM, IPC5202 (ARM-R)): 163 nM | IC50 [9]: 145 nM | IC50 [14]: 294 nM | % Suppression of parasitaemia (on day 4 post infection) ([10]; oral dose 3 x 30 mg/kg): 99.84% | Average survival (days) after infection ([10]; oral dose 3 x 30 mg/kg): 13 (12, 12, 13, 13, 13) days | IC50 [15]: 11700 ± 4120 nM | IC50 ([16]; 3D7, read-out: Pf-3D7 gametocytes IC50 (nM), >95% Stage I-III): 104 ± 34.7 nM | IC50 [17]: 12.1 nM | IC50 [11, 29]: 194 nM | IC50 [18]: 16.5 nM

C[C@H]1[C@@H](O)O[C@@H]2O[C@@]3(C)CC[C@H]4[C@H](C)CC[C@@H]1[C@@]24OO3 [DHA, dihydroartemisinin]
IC50 [7]: 1.8 nM | IC50 [8, 28]: 1.4 nM | IC50 ([13]; read-out: P. falciparum IC50 nM, IPC5202 (ARM-R), 72 h incubation, pLDH method): 2.2 nM | IC50 [14]: 2 nM | IC50 [17]: 3 nM | IC50 [11, 29]: 1.23 nM | IC50 [18]: 3.9 nM

CC(C)(C)NCc1cc(Nc2ccnc3cc(Cl)ccc23)ccc1F [FAQ4, 4′-Fluoro-N-tert-butylamodiaquine]
ED50 (95% CI) Mean [19]: 5.30 (4.10–6.80) mg/kg | ED90 (95% CI) Mean [19]: 12.40 (10.7–14.4) mg/kg | ED50 (95% CI) Mean [20]: 7.70 (6.70–8.90) mg/kg | ED90 (95% CI) Mean [20]: 10.60 (9.40–11.80) mg/kg

OC(Nc1ccnc2cc(Cl)ccc12)C12CCCN1CCC2 (stereo not drawn) [M2]
% of Total Drug Related Material [21]: 3% | % of Total Drug Related Material [22]: 1% | % of Total Drug Related Material [23]: 1% | % of Total Drug Related Material [24]: 27% | % of Total Drug Related Material [25]: 6%

CN(C)c1ccc2nc3ccc(=[N+](C)C)cc-3sc2c1 [Methylene Blue, reference compound]
IC50 [15]: 145 ± 42.6 nM | IC50 ([16]; 3D7, read-out: Pf-3D7 gametocytes IC50 (nM), >95% Stage I-III, luciferase readout, 3D7elo1-pfs16-CBG99): 59.6 ± 21.7 nM

CC(C)(C)NCc1ccc(Nc2ccnc3cc(Cl)ccc23)cc1O [NTBI, N-tert-butyl isoquine]
absolute bioavailability ([4]; literature value): 68%

Clc1ccc2c(N3CCN(CCCN4CCN(c5ccnc6cc(Cl)ccc56)CC4)CC3)ccnc2c1 [piperaquine]
IC50 [26]: 49 nM
